Results taken from paper PMC9247443 (Frontiers in Pharmacology, 2022).
Several values for one entry are separate records, joined by “and”; a condition that tells them apart may be missing. Equal values may be shown once.

Key:
human S1P1 [1] = target: T1, human S1P1 (Homo sapiens, UniProt P21453); assay: S1P1-mediated β-arrestin recruitment assay (PathHunter eXpress EDG1 CHO-K1); assay type: cell-based; settings: for Emax: CHO-K1, read-out: β-arrestin recruitment Intrinsic Activity, human S1P1; for EC50: EDG1(S1P1)/β-arrestin CHO-K1 cells, 90 min, mean ± SEM (n = 3–5) or SD (n = 2)
Method: Human S1P1 β-arrestin assays were carried out using the PathHunter® eXpress EDG1 CHO-K1 β-arrestin GPCR Assay (DiscoverX, Cat# 93-0207E2, including frozen cell stock, assay media, and assay plate). EDG1(S1P1)/β-arrestin CHO-K1 cells were thawed by adding 0.5 ml warm media to the vial. The cells were then transferred to 11.5 ml warm media, seeded at a density of 10,000 cells per well in a 96 well assay plate in a volume of 100 μL per well and incubated overnight in a 37°C CO2 incubator. […] Compounds were then added to the EDG1(S1P1)/β-arrestin CHO-K1 cells—10 μl per well of the 11X stock was added to the 100 ul per well of cells and the plate was incubated for 90 min in a 37°C CO2 incubator. The detection solution was prepared according to the manufacture’s protocol and 55 μl was added to each well of assay plate. The plate was then incubated for 1 h at room temperature before being read on a SpectraMax5 plate reader. Basal β-arrestin recruitment was determined using medium containing DMSO alone.

human S1P2 = target: T2, human S1P2 (Homo sapiens, UniProt O95136); assay: [^35S]-GTPγS binding; assay type: biochemical; settings: mean ± SEM; for EC50: [^35S]-GTPγS binding, CHO cell membranes; for Human S1P2 IA: intrinsic activity relative to maximal S1P response (100%)
T2 construct: membrane preparation
Source text: (§1) Stable clones of Chinese hamster ovary (CHO) cells expressing human S1P1 and S1P5 were generated by transfecting the cells with the N-terminal hemagglutinin-tagged receptor in pcDNA3.1 expression vectors followed by antibiotic selection for S1P1 and S1P5 and picking of clones using cyclic adenosine monophosphate assay, fluorescence-activated flow cytometry using the associated tag as well as functional [^35S]-GTPγS binding assays. Stable clones of CHO cells expressing human S1P2, S1P3, and S1P4 with an N-terminal FLAG tag were purchased from Multispan, Inc. (Hayward, CA, United States; catalog numbers C1051-1, CG1049-1, and CG1052-1 for S1P2, S1P3, and S1P4, respectively). Cells were grown to confluence in adherent culture in 500-cm^2 culture trays before being detached with cell scraper in cell-lifting buffer (10 mM HEPES/154 mM NaCl/6.85 mM ethylenediaminetetraacetic acid [EDTA], pH 7.4) and pelleted by centrifugation for 5 min at 1000 rpm. Cell pellets were then resuspended and homogenized in membrane preparation buffer (10 mM HEPES/10 mM EDTA, pH 7.4) using a Polytron PT 1200E homogenizer (Kinematica, Luzern, Switzerland). To collect the membrane pellet, cell homogenates were centrifuged at 48,000 × g at 4°C for 30 min. After discarding the supernatant, the pellet was rehomogenized and recentrifuged as described above. The final pellet was collected and homogenized in ice-cold resuspension buffer (10 mM HEPES and 0.1 mM EDTA, pH 7.4).
(§2) To quantitate receptor activation and G protein coupling, [^35S]-GTPγS binding assays were performed in 96-well nonbinding surface plates (Corning, New York, New York, United States; catalog number 3604) in a final volume of 200 μl. Test compounds were serial diluted in DMSO directly to the assay plate using the Tecan D300E digital printer in a total volume of 0.4 μl. […] All wells were brought to a total volume of 40 μl with assay buffer, and the reaction was initiated by the addition of 120 μl/well of assay buffer containing a mixture of 40 μg/ml S1P1–S1P5 membranes, 5–50 μM GDP (5 μM for S1P2 and S1P4, 16.67 μM GDP for S1P1 and S1P5, and 50 μM for S1P3), and 2.5 mg/ml of WGA PVT SPA beads (Perkin Elmer catalog number RPNQ0001). Assay plates were sealed and incubated at room temperature with gentle agitation for 30 min before adding 40 μl/well of 5× [^35S]-GTPγS (200 p.m. final) (Perkin Elmer, catalog number NEG030X250UC) in basic assay buffer (20 mM HEPES/10 mM MgCl2/100 mM NaCl/1 mM EDTA, pH 7.4) and then plates were resealed for an additional 40-min incubation at room temperature with gentle agitation. The experiment was terminated by centrifugation of the plates at 1000 rpm for 3 min using an Eppendorf (Hamburg, Germany) 5810R centrifuge and read on the MicroBeta2 microplate scintillation counter. Data were analyzed as raw counts per 40 s per well as collected from the MicroBeta2 counter. Raw counts were analyzed with GraphPad Prism version 8.0.0 using nonlinear regression to generate concentration response curves.

human S1P5 [2] = target: T3, human S1P5 (Homo sapiens, UniProt Q9H228); assay: [^35S]-GTPγS binding; assay type: biochemical; settings: for EC50: [^35S]-GTPγS binding, CHO cell membranes; for EC50 / Human S1P5 IA: mean ± SEM; for Human S1P5 IA: intrinsic activity relative to maximal S1P response (100%); for GTPγS potency for human S1P5 weaker than that for S1P1: S1P5 versus S1P1 EC50
Source text: as §1, §2

human S1P3 = target: T4, human S1P3 (Homo sapiens, UniProt Q99500); assay: [^35S]-GTPγS binding; assay type: biochemical; settings: mean ± SEM; for EC50: [^35S]-GTPγS binding, CHO cell membranes; for Human S1P3 IA: intrinsic activity relative to maximal S1P response (100%)
T4 construct: membrane preparation
Source text: as §1, §2

human S1P4 = target: T5, human S1P4 (Homo sapiens, UniProt O95977); assay: [^35S]-GTPγS binding; assay type: biochemical; settings: mean ± SEM; for EC50: [^35S]-GTPγS binding, CHO cell membranes; for Human S1P4 IA: intrinsic activity relative to maximal S1P response (100%)
T5 construct: membrane preparation
T5 sequence (O95977 1-384): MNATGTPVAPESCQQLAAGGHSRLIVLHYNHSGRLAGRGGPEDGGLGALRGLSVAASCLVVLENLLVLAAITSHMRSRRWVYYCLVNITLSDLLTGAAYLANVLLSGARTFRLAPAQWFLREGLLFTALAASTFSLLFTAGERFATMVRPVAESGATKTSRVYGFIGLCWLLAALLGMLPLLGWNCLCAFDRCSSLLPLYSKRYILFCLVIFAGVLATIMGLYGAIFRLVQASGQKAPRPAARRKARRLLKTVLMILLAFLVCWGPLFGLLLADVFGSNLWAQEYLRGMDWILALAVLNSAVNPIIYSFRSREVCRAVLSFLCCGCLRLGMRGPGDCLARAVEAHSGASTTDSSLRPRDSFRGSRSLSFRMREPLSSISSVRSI
Source text: as §1, §2

human S1P1 [3] = target: T1, human S1P1; assay: [^35S]-GTPγS binding; assay type: biochemical; settings: mean ± SEM; for EC50: [^35S]-GTPγS binding, CHO cell membranes; for Human S1P1 IA: intrinsic activity relative to maximal S1P response (100%)
Source text: as §1, §2

human S1P5 [4] = target: T3, human S1P5; assay: [^3H]-ozanimod competition radioligand binding
Source text: as §1
(§3) Assay plates were sealed and incubated at room temperature with gentle agitation for 60 min before filtration as described above.
(§4) Data were again analyzed as raw counts per 60 s per well collected from the MicroBeta2 counter.

human S1P1 [5] = target: T1, human S1P1; assay: [^3H]-ozanimod competition radioligand binding
Source text: as §1, §3, §4

T1 sequence (P21453 whole entry): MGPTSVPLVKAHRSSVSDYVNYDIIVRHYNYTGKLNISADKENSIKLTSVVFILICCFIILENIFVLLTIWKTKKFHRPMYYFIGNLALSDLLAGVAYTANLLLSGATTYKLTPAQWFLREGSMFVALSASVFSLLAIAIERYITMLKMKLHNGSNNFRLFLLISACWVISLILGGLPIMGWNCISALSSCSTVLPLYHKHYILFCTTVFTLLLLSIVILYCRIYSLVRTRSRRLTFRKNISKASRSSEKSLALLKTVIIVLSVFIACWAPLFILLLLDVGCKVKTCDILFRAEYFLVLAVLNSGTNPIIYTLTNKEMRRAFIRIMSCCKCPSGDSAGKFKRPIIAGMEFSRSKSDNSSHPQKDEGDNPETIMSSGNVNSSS
T2 sequence (O95136 whole entry): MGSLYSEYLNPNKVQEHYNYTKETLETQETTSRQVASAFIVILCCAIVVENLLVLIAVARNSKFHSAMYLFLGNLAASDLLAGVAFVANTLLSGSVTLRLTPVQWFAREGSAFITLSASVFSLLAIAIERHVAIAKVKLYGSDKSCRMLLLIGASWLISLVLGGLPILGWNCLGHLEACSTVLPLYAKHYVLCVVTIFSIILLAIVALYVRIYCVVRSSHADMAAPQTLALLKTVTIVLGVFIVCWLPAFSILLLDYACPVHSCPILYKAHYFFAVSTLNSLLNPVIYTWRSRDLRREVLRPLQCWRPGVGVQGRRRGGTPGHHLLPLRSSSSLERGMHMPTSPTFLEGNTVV
T3 sequence (Q9H228 whole entry): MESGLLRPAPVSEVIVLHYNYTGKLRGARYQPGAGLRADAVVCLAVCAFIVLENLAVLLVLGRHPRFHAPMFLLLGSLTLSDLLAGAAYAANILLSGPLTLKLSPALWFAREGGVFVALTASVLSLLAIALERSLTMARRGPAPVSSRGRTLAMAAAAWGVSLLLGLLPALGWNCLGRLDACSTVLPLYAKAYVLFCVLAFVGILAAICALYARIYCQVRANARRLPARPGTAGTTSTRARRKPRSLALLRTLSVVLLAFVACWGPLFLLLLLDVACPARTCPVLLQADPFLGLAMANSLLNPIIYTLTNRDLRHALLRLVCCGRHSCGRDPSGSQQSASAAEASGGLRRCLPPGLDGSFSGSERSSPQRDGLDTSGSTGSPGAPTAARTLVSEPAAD
T4 sequence (Q99500 whole entry): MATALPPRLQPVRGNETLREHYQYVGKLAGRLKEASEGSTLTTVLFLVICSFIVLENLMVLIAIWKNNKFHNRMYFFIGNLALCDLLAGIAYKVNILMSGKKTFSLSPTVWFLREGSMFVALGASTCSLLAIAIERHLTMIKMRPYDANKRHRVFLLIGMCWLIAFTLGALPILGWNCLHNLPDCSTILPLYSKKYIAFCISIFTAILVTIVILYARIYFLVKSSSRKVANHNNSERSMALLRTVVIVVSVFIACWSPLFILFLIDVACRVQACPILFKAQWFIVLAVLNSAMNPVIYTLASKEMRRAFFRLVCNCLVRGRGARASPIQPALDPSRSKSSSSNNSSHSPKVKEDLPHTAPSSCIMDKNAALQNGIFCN

Structure (SMILES)	Emax (human S1P1 [1])	EC50 (human S1P1 [1])	EC50 (human S1P2)	EC50 (human S1P5 [2])	Human S1P5 IA (human S1P5 [2])	Human S1P5 IA (human S1P5 [2]; listed as amiselimod-p)	EC50 (human S1P3)	Human S1P3 IA (human S1P3)	EC50 (human S1P4)	Human S1P4 IA (human S1P4)	EC50 (human S1P1 [3])	Human S1P1 IA (human S1P1 [3])	Ki (human S1P5 [4])	Ki (human S1P1 [5])	GTPγS potency for human S1P5 weaker than that for S1P1 (human S1P5 [2])	displacement of specific [^3H]-ozanimod binding, S1P5 (human S1P5 [4]; result in words)	displacement of specific [^3H]-ozanimod binding, S1P1 (human S1P1 [5]; result in words)	Human S1P2 IA (human S1P2)
CC(C)Oc1ccc(-c2nc(-c3cccc4c3CC[C@@H]4NCCO)no2)cc1C#N [Ozanimod]	68.7 ± 3.5%		> 10000 nM	5.84 ± 0.51 nM	97 ± 3.7%		> 1110 nM	89.4 ± 7.4%	1490 ± 306 nM	39.4 ± 5.3%		85 ± 1%	1.93 ± 0.07 nM		approximately 10 fold			34.8 ± 1%
CCCCCCCCCCCCC/C=C/[C@@H](O)[C@@H](N)COP(=O)(O)O [S1P, sphingosine 1-phosphate]														2.33 ± 0.17 nM		completely displaced	completely displaced	
CCC/N=C1\S/C(=C\c2ccc(OC[C@H](O)CO)c(Cl)c2)C(=O)N1c1ccccc1C [Ponesimod]	61.2 ± 1.6%	2.66 ± 0.42 nM	> 10000 nM	43.2 ± 12 nM	92.9 ± 9.8%		89.5 ± 14.3 nM	82.1 ± 7.5%	> 10000 nM	26.5 ± 2.5%	3.42 ± 1.17 nM	85.8 ± 6.2%	17.4 ± 4.32 nM	9.37 ± 1.31 nM	approximately 10 fold			NR (NR indicates no response where the maximal response was less than 10% of that of S1P)

The next lines start with results.

Emax (human S1P1 [1])	EC50 (human S1P1 [1])	EC50 (human S1P2)	EC50 (human S1P5 [2])	Human S1P5 IA (human S1P5 [2])	Human S1P5 IA (human S1P5 [2]; listed as amiselimod-p)	EC50 (human S1P3)	Human S1P3 IA (human S1P3)	EC50 (human S1P4)	Human S1P4 IA (human S1P4)	EC50 (human S1P1 [3])	Human S1P1 IA (human S1P1 [3])	Ki (human S1P5 [4])	Ki (human S1P1 [5])	GTPγS potency for human S1P5 weaker than that for S1P1 (human S1P5 [2])	displacement of specific [^3H]-ozanimod binding, S1P5 (human S1P5 [4]; result in words)	displacement of specific [^3H]-ozanimod binding, S1P1 (human S1P1 [5]; result in words)	Structure (SMILES)	Human S1P2 IA (human S1P2)
76.1 ± 11.6%	2.83 ± 2.21 nM	> 4000 nM	0.58 ± 0.08 nM	76.6 ± 6.9%	76.6%	19 ± 2.98 nM	29.1 ± 1.6%	2.23 ± 0.13 nM	122.2 ± 3.6%	0.15 ± 0.01 nM	84.1 ± 1.6%	0.25 ± 0.04 nM	0.13 ± 0.02 nM				CCCCCCCOc1ccc(CCC(N)(CO)COP(=O)(O)O)cc1C(F)(F)F (centres unmarked) [Amiselimod-p]	NR (NR indicates no response where the maximal response was less than 10% of that of S1P)
75.8 ± 1.8%	11.3 ± 2.32 nM	> 10000 nM	58.9 ± 6.75 nM	82 ± 4.4%		1160 ± 354 nM	81.2 ± 17%	1130 ± 189 nM	40.4 ± 4.6%	5.48 ± 0.46 nM	86.6 ± 1.1%	16.3 ± 0.71 nM	6.73 ± 0.62 nM	approximately 10 fold			O=C(O)C[C@H]1CCc2c1[nH]c1ccc(OCc3ccc(C4CCCC4)c(C(F)(F)F)c3)cc21 [Etrasimod]	NR (NR indicates no response where the maximal response was less than 10% of that of S1P)
72.3 ± 5.4%	2.98 ± 0.96 nM	> 10000 nM	0.69 ± 0.19 nM	45.8 ± 7.6%		3.17 ± 0.26 nM	25.7 ± 3.8%	3.13 ± 0.29 nM	56.3 ± 3.8%	0.26 nM	85.7 ± 3.6%	0.24 ± 0.04 nM	0.22 ± 0.02 nM				NC(CO)(CCc1ccc(Sc2cccc(OCc3ccccc3)c2)cc1Cl)COP(=O)(O)O (centres unmarked) [KRP-203-p, KRP-203-phosphate]	NR (NR indicates no response where the maximal response was less than 10% of that of S1P)
68.6 ± 9.2%	9.3 ± 2.79 nM	> 10000 nM	0.3 ± 0.02 nM	102 ± 9.1%		> 1110 nM	90.7 ± 2.5%	384 ± 67.8 nM	81.5 ± 2.4%	0.46 ± 0.05 nM	82.1 ± 0.9%	0.43 ± 0.08 nM	0.74 ± 0.09 nM				CCc1cc(/C(C)=N/OCc2ccc(C3CCCCC3)c(C(F)(F)F)c2)ccc1CN1CC(C(=O)O)C1 [Siponimod]	NR (NR indicates no response where the maximal response was less than 10% of that of S1P)
79.8 ± 4.3%				74% and 74 ± 5.1%			106.5 ± 8.3%	2.06 ± 0.3 nM	59.2 ± 5.4%		84.9 ± 2.3%						CCCCCCCCc1ccc(CCC(N)(CO)COP(=O)(O)O)cc1 (centres unmarked) [FTY720-p, FTY720-phosphate]	33.2 ± 1%
